Laboratory results reported in ChEMBL document CHEMBL4433240, “Identification and characterization of potent and selective inhibitors targeting protein tyrosine phosphatase 1B (PTP1B)” (Bioorg Med Chem Lett, 2019).
Activity calls are given as the source filed them. No cut-off for these calls is given here.

Assays:
[1] = target: T1, Tyrosine-protein phosphatase non-receptor type 1 (Homo sapiens, UniProt P18031); experiment: Inhibition of PTP1B (unknown origin) assessed as reduction in nitrophenol production using pNPP as substrate incubated for 30 mins by EnVisionMultilable plate reader based method
T1 sequence (P18031 whole entry): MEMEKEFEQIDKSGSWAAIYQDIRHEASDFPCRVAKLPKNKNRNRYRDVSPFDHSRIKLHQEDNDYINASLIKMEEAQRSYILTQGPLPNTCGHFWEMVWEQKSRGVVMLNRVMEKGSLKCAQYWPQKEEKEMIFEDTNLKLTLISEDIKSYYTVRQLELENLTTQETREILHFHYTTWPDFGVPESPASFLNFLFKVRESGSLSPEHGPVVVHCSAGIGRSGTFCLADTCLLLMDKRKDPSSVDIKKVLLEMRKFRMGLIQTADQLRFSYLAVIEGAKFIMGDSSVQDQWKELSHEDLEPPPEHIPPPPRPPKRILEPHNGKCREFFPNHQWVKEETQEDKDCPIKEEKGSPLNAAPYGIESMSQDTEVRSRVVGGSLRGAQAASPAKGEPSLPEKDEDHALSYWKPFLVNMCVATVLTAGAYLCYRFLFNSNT

Homo sapiens [2] = organism: Homo sapiens; experiment: Selectivity ratio of IC50 for TCPTP (unknown origin) using pNPP as substrate to IC50 for PTP1B (unknown origin) using pNPP as substrate
[3] = target: T2, Tyrosine-protein phosphatase non-receptor type 2 (Homo sapiens, UniProt P17706); experiment: Inhibition of TCPTP (unknown origin) assessed as reduction in nitrophenol production using pNPP as substrate incubated for 30 mins by EnVisionMultilable plate reader based method
T2 sequence (P17706 whole entry): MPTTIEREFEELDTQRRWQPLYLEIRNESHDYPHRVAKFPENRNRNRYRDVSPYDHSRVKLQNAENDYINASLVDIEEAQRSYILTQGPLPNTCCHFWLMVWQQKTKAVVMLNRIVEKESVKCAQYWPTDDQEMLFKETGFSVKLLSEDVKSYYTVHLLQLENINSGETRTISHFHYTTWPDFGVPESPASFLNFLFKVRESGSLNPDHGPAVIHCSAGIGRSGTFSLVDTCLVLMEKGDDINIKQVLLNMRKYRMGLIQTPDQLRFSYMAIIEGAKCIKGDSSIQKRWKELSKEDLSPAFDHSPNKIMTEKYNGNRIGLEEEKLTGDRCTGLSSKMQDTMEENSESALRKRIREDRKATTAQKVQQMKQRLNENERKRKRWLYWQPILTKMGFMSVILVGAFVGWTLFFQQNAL

[4] = target: T1, Tyrosine-protein phosphatase non-receptor type 1; experiment: Inhibition of human FLAG-tagged PTP1B catalytic domain (1 to 298) expressed in Escherichia coli using fluorescein diphosphate as substrate by fluorescence based method
[5] = target: T2, Tyrosine-protein phosphatase non-receptor type 2; experiment: Inhibition of human FLAG-tagged TCPTP (1 to 296) expressed in Escherichia coli using fluorescein diphosphate as substrate by fluorescence based method
[6] = target: T3, Tyrosine-protein phosphatase non-receptor type 1 (Homo sapiens) (UniProt P18031); experiment: Competitive inhibition of PTP1B (unknown origin) assessed as increase in Km at 0 to 9.6 uM using varying levels of pNPP as substrate by Lineweaver-Burk plot analysis
T3 sequence (whole entry): T1 sequence (P18031 whole entry)

L02 = experiment: Cytotoxicity against human L02 cells assessed as reduction in cell viability after 72 hrs by WST1 assay; type: cell-based; conditions: L02, 72 h
[7] = Cytotoxicity against human L02 cells assessed as cell viability at 1 to 250 uM after 72 hrs by WST1 assay; type: cell-based; conditions: read-out: Activity
[8] = target: T3, Tyrosine-protein phosphatase non-receptor type 1 (Homo sapiens); experiment: Competitive inhibition of PTP1B (unknown origin) assessed as change in V max at 0 to 9.6 uM using varying levels of pNPP as substrate by Lineweaver-Burk plot analysis
Homo sapiens [9] = organism: Homo sapiens; experiment: Selectivity ratio of IC50 for TCPTP (unknown origin) to IC50 for human GST-tagged PTP1B
[10] = target: T3, Tyrosine-protein phosphatase non-receptor type 1 (Homo sapiens); experiment: Competitive inhibition of PTP1B (unknown origin) assessed as change in V max at 0 to 28.8 uM using varying levels of pNPP as substrate by Lineweaver-Burk plot analysis
[11] = target: T3, Tyrosine-protein phosphatase non-receptor type 1 (Homo sapiens); experiment: Competitive inhibition of PTP1B (unknown origin) assessed as increase in Km at 0 to 28.8 uM using varying levels of pNPP as substrate by Lineweaver-Burk plot analysis

| Structure (SMILES) | IC50 [1] | Ratio IC50 (Homo sapiens [2]) | IC50 [3] | other results |
| --- | --- | --- | --- | --- |
| COC(CC(C)C)c1ccc2ccc(-c3ccc(CC(Cc4ccc(C(F)(F)P(=O)(O)O)cc4)(c4ccccc4)n4nnc5ccccc54)cc3)c(P(=O)(O)O)c2n1 (configuration not stated) |  |  |  | IC50 [4]: 0.005 µM; IC50 [5]: 0.036 µM |
| CCOC(=O)C1=C(C(C)C)NC(=S)N[C@H]1/C=C/c1ccc(C(F)(F)F)cc1 | 10.3 µM | > 9.66 | > 100 µM |  |
| CCOC(=O)C1=C(C(C)C)NC(=S)N[C@H]1/C=C/c1ccc(F)cc1 | > 50 µM |  |  |  |
| CC1(C)CC[C@]2(C(=O)O)CC[C@]3(C)C(=CC[C@@H]4[C@@]5(C)CC[C@H](O)C(C)(C)[C@@H]5CC[C@]43C)[C@@H]2C1 [OLEANOLIC_ACID] |  |  |  | viability at 72 h, up to 250 µM [7]: < 85% |
| COC(=O)C1=C(C(C)C)NC(=S)N[C@H]1/C=C/c1ccccc1 | 18.6 µM | > 5.39 | > 100 µM |  |
| COC(=O)C1=C(C(C)C)NC(=S)N[C@H]1/C=C/c1ccc([N+](=O)[O-])cc1 | > 50 µM |  |  |  |
| CC(C)OCc1cc(O)c(O)c(Br)c1Cc1cc(O)c(O)c(Br)c1Br |  |  |  | Ratio IC50 (Homo sapiens [9]): > 50 |
| CCOC(=O)C1=C(C(C)C)NC(=S)N[C@H]1/C=C/c1ccc(C)cc1 | 7.49 µM | > 13.3 | > 100 µM |  |
| CCOC(=O)C1=C(C(C)C)NC(=S)N[C@H]1/C=C/c1ccc(Cl)cc1 | 4.79 µM | 7.47 | 35.8 µM |  |
| CCOC(=O)C1=C(C(C)C)NC(=S)N[C@H]1/C=C/c1ccc(Br)cc1 | 11.3 µM | > 8.85 | > 100 µM |  |
| CCOC(=O)C1=C(C(C)C)NC(=S)N[C@H]1/C=C/c1ccccc1 | > 50 µM |  |  |  |
| CCOC(=O)C1=C(C(C)C)NC(=S)N[C@H]1/C=C/c1ccc([N+](=O)[O-])cc1 | > 50 µM |  | > 100 µM |  |

Further lines, with some results ahead:

| IC50 [1] | Ratio IC50 (Homo sapiens [2]) | IC50 [3] | Structure (SMILES) | other results |
| --- | --- | --- | --- | --- |
| 16.3 µM | > 6.13 | > 100 µM | COC(=O)C1=C(C(C)(C)C)NC(=S)N[C@H]1/C=C/c1ccc(C)cc1 |  |
| 5.49 µM | > 18.2 | > 100 µM | COC(=O)C1=C(C(C)C)NC(=S)N[C@H]1/C=C/c1ccc(C(F)(F)F)cc1 |  |
| 6.31 µM | > 15.8 | > 100 µM | COC(=O)C1=C(C(C)(C)C)NC(=S)N[C@H]1/C=C/c1ccc(C(F)(F)F)cc1 |  |
| > 50 µM |  |  | COC(=O)C1=C(C(C)(C)C)NC(=S)N[C@H]1/C=C/c1ccccc1 |  |
| 7.12 µM | > 14 | > 100 µM | COC(=O)C1=C(C(C)C)NC(=S)N[C@H]1/C=C/c1ccc(Cl)cc1 | inhibition [6]: Active; IC50 (L02): > 250 µM; viability at 72 h, up to 250 µM [7]: > 85%; inhibition [8]: Active |
| 11 µM | 3.28 | 36 µM | COC(=O)C1=C(C(C)(C)C)NC(=S)N[C@H]1/C=C/c1ccc(Br)cc1 |  |
| 5.03 µM | > 19.9 | > 100 µM | COC(=O)C1=C(C(C)(C)C)NC(=S)N[C@H]1/C=C/c1ccc(OC)cc1 |  |
| 2.38 µM | 17 | 40.4 µM | CCOC(=O)C1=C(C(C)C)NC(=S)N[C@H]1/C=C/c1ccc(OC)cc1 |  |
| 11.4 µM | > 8.79 | > 100 µM | COC(=O)C1=C(C(C)(C)C)NC(=S)N[C@H]1/C=C/c1ccc([N+](=O)[O-])cc1 |  |
| 3.33 µM | > 30 | > 100 µM | COC(=O)C1=C(C(C)C)NC(=S)N[C@H]1/C=C/c1ccc(F)cc1 | IC50 (L02): > 250 µM; viability at 72 h, up to 250 µM [7]: > 85%; inhibition [10]: Active; inhibition [11]: Active |
| 6.65 µM | 8.24 | 54.8 µM | COC(=O)C1=C(C(C)(C)C)NC(=S)N[C@H]1/C=C/c1ccc(Cl)cc1 |  |
| 6.28 µM | > 15.9 | > 100 µM | COC(=O)C1=C(C(C)C)NC(=S)N[C@H]1/C=C/c1ccc(Br)cc1 |  |
| > 50 µM |  |  | COC(=O)C1=C(C(C)(C)C)NC(=S)N[C@H]1/C=C/c1ccc(F)cc1 |  |
